Paper PMC2922380, “Binding of Protein Kinase Inhibitors to Synapsin I Inferred from Pair-Wise Binding Site Similarity Measurements” (PLoS ONE, 2010)
Like-named read-outs stand apart in the source and are kept apart here.

Experiments:
[1] = molecular target: bovine synapsin I (Bos taurus, UniProt P17599); assay: ATP-γ35S binding competition assay on purified synapsin I; conditions: for maximal inhibition of ATP-γ35S binding to synapsin I: from curve fitting (lower plateau); for binding to synapsin I (result in words): ATP-γ35S competition, inhibitor 0.1–30 µM
Method: Synapsin I was purified from bovine brain [71] and stored in liquid nitrogen in 200 mM NaCl, 25 mM TrisCl, pH 7.4. […] ATP-γ^35S binding was quantified as previously described. Briefly, aliquots of the samples were spotted onto squares of phosphocellulose paper (Upstate/Millipore, Billerica, MA). The paper squares were extensively washed with deionized water for 30 min, air-dried and analyzed for radioactivity by using the Perkin Elmer Cyclone Plus Phosphor Imager. After subtraction of the background values (samples with no synapsin I), data from individual competition curves were fitted with a sigmoidal dose-response function (f = min +(max–min)/(1+10∧((logEC50-x)*Hillslope)) using the Sigmaplot 8.0 software (SPSS Inc., Chicago, IL) to yield IC50 and maximal inhibition values. Data in the plots are the means ± sem of at least 5 independent experiments.

[2] = system: synapsin I / F-actin; assay: F-actin bundling activity of synapsin I, low speed sedimentation assay; assay type: biochemical, bovine; conditions: staurosporine 5 µM; synapsin I 0.5 µM, F-actin 5 µM; vs samples with F-actin and synapsin I only
Method: Actin was purified from acetone powder of rabbit skeletal muscles, [96] and stored in liquid nitrogen in 2 mM Tris pH 8, 0.2 mM ATP, 0,2 mM CaCl2, 0.125 mM β-mercaptoethanol and 0.005% NaN3 (G-buffer). Before the experiments, both G-actin and synapsin I were prespun for 1 h at 4°C at 300,000× g to remove large aggregates. G-actin was polymerized at room temperature for 1 h in the presence of 100 mM KCl, 1.2 mM MgCl2. […] Pellets were solubilized in sample buffer and analyzed by sodium dodecylsulfate polyacrylamide gel electrophoresis (SDS-PAGE) using 10% acrylamide in the resolving gel. Gels were fixed, stained with Coomassie Blue and destained. Densitometric analysis of the actin bands was carried out by using the ImageQuant system (GE Healthcare) followed by densitometric analysis of the fluorograms and by data interpolation into a standard curve of purified G-actin run in parallel with the unknown samples.

[3] = ATP-γ35S 0.2 µM, purified bovine synapsin I 0.5 µM
[4] = ATP-γ35S 0.2 µM, purified bovine synapsin I 0.5 µM, means ± sem from 5 independent experiments, read-out: IC50, inhibition of ATP-γ35S binding to synapsin I

Compound	IC50 [1, 4]	binding to synapsin I (result in words) [1]	maximal inhibition of ATP-γ35S binding to synapsin I [1, 3]	other results
Nc1ncnc2c1ncn2[C@@H]1O[C@H](COP(=O)(O)OP(=O)(O)OP(=O)(O)O)[C@@H](O)[C@H]1O [ATP]	70 ± 10 nM	–	95.8±2.2%	–
O=S(=O)(NCCNC/C=C/c1ccc(Br)cc1)c1cccc2cnccc12 [H-89]	> 30000 nM	–	–	–
O=C(O)CN1C(=O)c2c(I)c(I)c(I)c(I)c2C1=O [compound 70159800251]	500 nM	–	ca. 70%	–
O=c1c(O)c(-c2ccc(O)c(O)c2)oc2cc(O)c(O)c(O)c12 [quercetagetin]	–	–	88.3±4.9%	IC50 [1]: 150 nM
CN[C@@H]1C[C@H]2O[C@@](C)([C@@H]1OC)n1c3ccccc3c3c4c(c5c6ccccc6n2c5c31)C(=O)NC4 [staurosporine]	–	–	84.3±1.2%	increase in F-actin/synapsin I bundles recovered by low speed sedimentation [2]: approximately 30%; affinity to bovine synapsin I ([1]; in vitro competition assay, as restated in Discussion): about 0.3 µM
novobiocin	–	inactive	–	–

More lines, main results first:

IC50 [1, 4]	binding to synapsin I (result in words) [1]	Compound	maximal inhibition of ATP-γ35S binding to synapsin I [1, 3]	other results
–	inactive	CCc1cc(-c2n[nH]c(C)c2-c2ccc3c(c2)OCCO3)c(O)cc1O [CCT018159]	–	–
–	inactive	Cc1nc2sccn2c(=O)c1CCN1CCC(=C(c2ccccc2)c2ccc(F)cc2)CC1 [R59022]	–	–
